Test results taken from patent publication US8952169B2 (Genentech, Inc., priority 2012, dated 2015).

Target: hNav1.7 (Homo sapiens (Human), UniProt Q15858)
Experiment: Tritiated aryl sulfonamide binding to membranes from cells expressing hNav1.7 and the β1 subunit (competitive binding)
Conditions: membranes with hNav1.7 and β1 subunit; [3H]compound displacement, 18 h, room temperature; read-out: NaV1.7 395 Memb Binding (IC50)
Protocol: Tritiated Aryl Sulfonamide Binding to Membranes Isolated from Cells that Heterologously Express hNav1.7 and the β1 Subunit
Preparation of membranes containing recombinantly expressed sodium channels: Frozen recombinant cell pellets were thawed on ice and diluted to 4 times the cell pellet weight with ice cold 50 mM Tris HCl, pH 7.4 buffer. The cell suspensions were homogenized on ice using a motorized glass dounce homogeniser. Homogenates were further diluted 8.4 times with ice cold 50 mM Tris HCl, pH 7.4 buffer and then centrifuged at 200×g at 4° C. for 15 min. The supernatants were collected and centrifuged at 10000×g at 4° C. for 50 min. The pellets were then re-suspended in 100 mM NaCl, 20 mM Tris HCl, pH 7.4 buffer containing 1% v/v protease inhibitors (Calbiochem) and re-homogenized on ice. The homogenized membranes were then processed through a syringe equipped with a 26 gauge needle. Protein concentrations were determined by Bradford Assay and the membranes were stored at −80° C.
Radioligand Binding Studies: Saturation experiments. A representative compound of formula (I) was tritiated. Three tritiums were incorporated in place of methyl hydrogens to generate [^3H]compound. Binding of this radioligand was preformed in 5 mL borosilicate glass test tubes at room temperature. Binding was initiated by adding membranes to increasing concentrations of [^3H]compound in 100 mM NaCl, 20 mM Tris HCl, pH 7.4 buffer containing 0.01% w/v bovine serum albumin (BSA) for 18 h. Non-specific binding was determined in the presence of 1 μM unlabelled compound. After 18 h, the reactants were filtered through GF/C glass fiber filters presoaked in 0.5% w/v polyethylene imine. […] [^3H]compound bound to filters was quantified by liquid scintillation counting.
Competitive binding experiments. Binding reactions were preformed in 96-well polypropylene plates at room temperature for 18 h. In 360 μL, membranes were incubated with 100 μM [^3H]compound and increasing concentrations of Test Compound. Non-specific binding was defined in the presence of 1 μM unlabelled compound. Reactions were transferred and filtered through 96-well glass fiber/C filter plates presoaked with 0.5% polyethylene imine. The filtered reactions were washed 5 times with 200 L ice cold buffer containing 0.25% BSA. Bound radioactivity was determined by liquid scintillation counting.
Data Analysis: For saturation experiments, non-specific binding was subtracted from total binding to provide specific binding and these values were recalculated in terms of pmol ligand bound per mg protein. Saturation curves were constructed and dissociation constants were calculated using the single site ligand binding model: Beq=(Bmax*X)/(X+Kd), where Beq is the amount of ligand bound at equilibrium, Bmax is the maximum receptor density, Kd is the dissociation constant for the ligand, and X is the free ligand concentration.

Chain of hNav1.7 (Q15858 whole entry, looked up): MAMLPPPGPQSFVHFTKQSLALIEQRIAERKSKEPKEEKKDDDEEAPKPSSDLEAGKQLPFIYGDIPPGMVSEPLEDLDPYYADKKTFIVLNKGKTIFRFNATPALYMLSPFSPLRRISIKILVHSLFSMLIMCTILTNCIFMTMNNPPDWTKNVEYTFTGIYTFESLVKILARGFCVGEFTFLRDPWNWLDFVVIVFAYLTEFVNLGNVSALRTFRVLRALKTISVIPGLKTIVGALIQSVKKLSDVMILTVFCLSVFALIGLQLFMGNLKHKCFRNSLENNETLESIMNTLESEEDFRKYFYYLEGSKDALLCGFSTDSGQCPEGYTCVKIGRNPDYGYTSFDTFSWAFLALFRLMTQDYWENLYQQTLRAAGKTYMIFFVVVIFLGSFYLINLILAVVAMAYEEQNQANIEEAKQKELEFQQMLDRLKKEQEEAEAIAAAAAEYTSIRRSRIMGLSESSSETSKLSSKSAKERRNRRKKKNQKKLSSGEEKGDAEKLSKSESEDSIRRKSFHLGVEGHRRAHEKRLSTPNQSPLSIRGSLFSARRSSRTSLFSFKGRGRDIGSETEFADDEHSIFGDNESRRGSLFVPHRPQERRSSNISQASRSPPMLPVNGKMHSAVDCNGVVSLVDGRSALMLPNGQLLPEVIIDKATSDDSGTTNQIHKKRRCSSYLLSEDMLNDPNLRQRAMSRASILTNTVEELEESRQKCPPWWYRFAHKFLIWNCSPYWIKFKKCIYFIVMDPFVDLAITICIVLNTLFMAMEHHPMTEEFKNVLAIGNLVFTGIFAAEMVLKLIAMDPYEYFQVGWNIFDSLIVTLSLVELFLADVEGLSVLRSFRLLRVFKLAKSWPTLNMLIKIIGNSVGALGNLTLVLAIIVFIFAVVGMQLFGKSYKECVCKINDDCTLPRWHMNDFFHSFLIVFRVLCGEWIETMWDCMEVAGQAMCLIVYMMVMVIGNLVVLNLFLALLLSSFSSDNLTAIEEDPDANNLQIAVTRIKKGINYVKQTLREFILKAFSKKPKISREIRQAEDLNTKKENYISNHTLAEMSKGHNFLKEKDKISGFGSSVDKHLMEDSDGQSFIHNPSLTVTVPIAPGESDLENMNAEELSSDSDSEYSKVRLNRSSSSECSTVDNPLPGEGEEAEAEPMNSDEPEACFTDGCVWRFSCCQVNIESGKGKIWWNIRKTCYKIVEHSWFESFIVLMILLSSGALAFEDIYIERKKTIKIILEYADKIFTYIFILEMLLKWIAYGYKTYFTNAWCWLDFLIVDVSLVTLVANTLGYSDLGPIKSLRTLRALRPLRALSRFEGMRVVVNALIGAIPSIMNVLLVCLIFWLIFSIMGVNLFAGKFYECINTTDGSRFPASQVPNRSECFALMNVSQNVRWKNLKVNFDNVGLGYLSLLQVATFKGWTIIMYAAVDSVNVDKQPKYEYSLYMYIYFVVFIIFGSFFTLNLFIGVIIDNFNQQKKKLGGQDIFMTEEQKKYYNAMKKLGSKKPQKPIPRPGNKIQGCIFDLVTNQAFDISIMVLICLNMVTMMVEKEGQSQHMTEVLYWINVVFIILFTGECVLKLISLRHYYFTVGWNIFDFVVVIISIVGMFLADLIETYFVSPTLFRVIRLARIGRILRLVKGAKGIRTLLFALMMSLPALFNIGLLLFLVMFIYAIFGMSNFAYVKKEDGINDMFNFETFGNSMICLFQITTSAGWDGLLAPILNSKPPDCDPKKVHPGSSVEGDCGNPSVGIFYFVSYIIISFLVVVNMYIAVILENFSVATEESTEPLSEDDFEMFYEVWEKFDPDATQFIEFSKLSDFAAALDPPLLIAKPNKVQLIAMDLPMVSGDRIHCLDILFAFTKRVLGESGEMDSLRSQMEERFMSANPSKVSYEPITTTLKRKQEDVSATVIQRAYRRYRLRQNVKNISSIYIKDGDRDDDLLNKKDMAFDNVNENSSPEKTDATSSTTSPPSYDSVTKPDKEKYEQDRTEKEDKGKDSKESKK
Chain of hNav1.7 (Q07699 whole entry partner, looked up): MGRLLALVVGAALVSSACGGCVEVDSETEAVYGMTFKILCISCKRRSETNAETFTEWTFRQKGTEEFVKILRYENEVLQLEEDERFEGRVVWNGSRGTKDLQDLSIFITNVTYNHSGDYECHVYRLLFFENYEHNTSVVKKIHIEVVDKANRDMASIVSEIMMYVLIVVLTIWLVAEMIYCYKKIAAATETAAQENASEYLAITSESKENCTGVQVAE

Structure (SMILES)	IC50
CN(C)S(=O)(=O)NC(=O)c1cc(Cl)c(OCC2CCCCC2)cc1F	322 nM
CN(C)S(=O)(=O)NC(=O)c1cc(Cl)c(OCC2CCCC2)cc1F	672 nM
CS(=O)(=O)NC(=O)c1cc(Cl)c(OCC2(C(F)(F)F)CC2)cc1F	603 nM
CS(=O)(=O)NC(=O)c1cc(Cl)c(OCC23CC4CC(CC(Cl)(C4)C2)C3)cc1F	53 nM
CS(=O)(=O)NC(=O)c1cc(Cl)c(OC[C@H]2CC[C@H](C(F)(F)F)CC2)cc1F	158 nM
COc1ncccc1-c1cc(C(=O)NS(C)(=O)=O)ccc1OCC12CC3CC(CC(C3)C1)C2	803 nM
CS(=O)(=O)NC(=O)c1cc(Cl)c(OCC2C3CC4CC(C3)CC2C4)cc1F (stereo not drawn)	17 nM
CC1(C)C(COc2ccc(C(=O)NS(C)(=O)=O)cc2Cl)C1(C)C	181 nM
CS(=O)(=O)NC(=O)c1cc(Cl)c(O[C@@H]2C[C@@H]3CC[C@H]2C3)cc1F	167 nM
CC(C)[C@H]1CC[C@H](C)C[C@@H]1Oc1cc(F)c(C(=O)NS(C)(=O)=O)cc1Cl	1320 nM
CS(=O)(=O)NC(=O)c1cc(Cl)c(OC2CC3CC2C2CCCC32)cc1F (stereo not drawn)	205 nM
CC(C)[C@H]1CC[C@H](Oc2cc(F)c(C(=O)NS(C)(=O)=O)cc2Cl)CC1	57 nM
CC1(C)CCCC(Oc2cc(F)c(C(=O)NS(C)(=O)=O)cc2Cl)C1 (stereo not drawn)	93 nM
CC1(C)CCC(Oc2cc(F)c(C(=O)NS(C)(=O)=O)cc2Cl)CC1	166 nM
CN(C)S(=O)(=O)NC(=O)c1cc(Cl)c(OC2C3CC4CC2CC(Cl)(C4)C3)cc1F (stereo not drawn) [listing 1 of 2 here]	283 nM
CN(C)S(=O)(=O)NC(=O)c1cc(Cl)c(OCCC2CCCC2)cc1F	542 nM
CN(C)S(=O)(=O)NC(=O)c1cc(Cl)c(OCCC2CCCCCC2)cc1F	210 nM
CN(C)S(=O)(=O)NC(=O)c1cc(Cl)c(OCCCC2CCCCC2)cc1F	295 nM
CN(C)S(=O)(=O)NC(=O)c1cc(Cl)c(OC2CCC(C(F)(F)F)CC2)cc1F (stereo not drawn)	3520 nM
CS(=O)(=O)NC(=O)c1cc(Cl)c(OCC23CC4CC(C2)C(F)(F)C(C4)C3)cc1F	27 nM
CS(=O)(=O)NC(=O)c1cc(Cl)c(OCC2CCC3(CCC3)CC2)cc1F	17 nM
CS(=O)(=O)NC(=O)c1cc(Cl)c(OCC2CCC(F)(F)CC2)cc1F	558 nM

Other lines, results leading:

IC50	Structure (SMILES)
44 nM	CC1(C)[C@H]2CC[C@@H](COc3cc(F)c(C(=O)NS(C)(=O)=O)cc3Cl)[C@@H]1C2
86 nM	CS(=O)(=O)NC(=O)c1cc(Cl)c(COc2ccc3c(c2)CCCC3)cc1F
117 nM	CC1(C)[C@H]2CC=C(COc3cc(F)c(C(=O)NS(C)(=O)=O)cc3Cl)[C@@H]1C2
80 nM	CS(=O)(=O)NC(=O)c1cc(Cl)c(OCC2CC3CCC2C3)cc1F (stereo not drawn)
44 nM	CS(=O)(=O)NC(=O)c1cc(Cl)c(OCC2CCCCCC2)cc1F
9 nM	CCCCCC12CCC(COc3cc(F)c(C(=O)NS(C)(=O)=O)cc3Cl)(CC1)CC2
7120 nM	CC1(C)[C@H]2CC[C@](C)(C2)[C@H]1Oc1cc(F)c(C(=O)NS(C)(=O)=O)cc1Cl
491 nM	CS(=O)(=O)NC(=O)c1cc(Cl)c(OC2CC3CCC2C3)cc1F (stereo not drawn)
230 nM	CN(C)S(=O)(=O)NC(=O)c1cc(Cl)c(O[C@@H]2C[C@@H]3CC[C@@]2(C)C3(C)C)cc1F
138 nM	CC(C)[C@H]1CC[C@H](Oc2cc(F)c(C(=O)NS(=O)(=O)N(C)C)cc2Cl)CC1
419 nM	CN(C)S(=O)(=O)NC(=O)c1cc(Cl)c(OC2C3CC4CC2CC(Cl)(C4)C3)cc1F (stereo not drawn) [listing 2 of 2 here]
67 nM	CS(=O)(=O)NC(=O)c1cc(Cl)c(OC2CCC3(CCCCC3)CC2)cc1F
281 nM	CN(C)S(=O)(=O)NC(=O)c1cc(Cl)c(OC2CCC3(CCCCC3)CC2)cc1F
273 nM	CN(C)S(=O)(=O)NC(=O)c1cc(Cl)c(OC2CCC3(CCCC3)CC2)cc1F
300 nM	CN(C)S(=O)(=O)NC(=O)c1cc(Cl)c(OCCCC2CCCC2)cc1F
166 nM	CN(C)S(=O)(=O)NC(=O)c1cc(Cl)c(OCCC23CC4CC(CC(C4)C2)C3)cc1F
51 nM	CN(C)S(=O)(=O)NC(=O)c1cc(Cl)c(OCC2C3CC4CC(C3)CC2C4)cc1F (stereo not drawn)
